Test results from PubChem BioAssay AID248 (DTP/NCI, 2004).
“And” between values parts separate entries of the source, which are not always exact repeats. Equal values may be shown once. Toxic doses and inconclusive results are not listed. No stated cut-off is given here; in the data, active means T/C of 150% or more; inactive means T/C below 125%.

Tested on: L1210 leukemia ip in BDF1 mice, survival T/C
Assay: NCI In Vivo Anticancer Drug Screen. Data for tumor model L1210 Leukemia (intraperitoneal) in B6D2F1 (BDF1) mice
Details: endpoint: mean survival time, higher = longer survival
Outline: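 Value reflects the ratio of survival in compound-treated mice to survival in vehicle-treated controls, with both groups carrying the same transplanted tumor.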

[1] = dose: 100.0 mg/kg/injection, schedule: Q01DX001 (ip), vehicle: saline
[2] = dose: 100.0 mg/kg/injection, schedule: Q01DX009 (ip), vehicle: saline with Tween-80
[3] = dose: 200.0 mg/kg/injection, schedule: Q01DX001 (ip), vehicle: saline
[4] = dose: 400.0 mg/kg/injection, schedule: Q01DX001 (ip), vehicle: saline
[5] = dose: 100.0 mg/kg/injection, schedule: Q04DX003 (ip), vehicle: Klucel (hydroxypropylcellulose) (HPC)
[6] = dose: 200.0 mg/kg/injection, schedule: Q01DX009 (ip), vehicle: Klucel (hydroxypropylcellulose) (HPC)
[7] = dose: 200.0 mg/kg/injection, schedule: Q04DX003 (ip), vehicle: Klucel (hydroxypropylcellulose) (HPC)
[8] = dose: 400.0 mg/kg/injection, schedule: Q01DX009 (ip), vehicle: Klucel (hydroxypropylcellulose) (HPC)
[9] = dose: 400.0 mg/kg/injection, schedule: Q04DX003 (ip), vehicle: Klucel (hydroxypropylcellulose) (HPC)
[10] = dose: 100.0 mg/kg/injection, schedule: Q04DX003 (ip), vehicle: saline
[11] = dose: 200.0 mg/kg/injection, schedule: Q04DX003 (ip), vehicle: saline
[12] = dose: 400.0 mg/kg/injection, schedule: Q04DX003 (ip), vehicle: saline
[13] = dose: 50.0 mg/kg/injection, schedule: Q01DX009 (ip), vehicle: Klucel (hydroxypropylcellulose) (HPC)
[14] = dose: 100.0 mg/kg/injection, schedule: Q01DX009 (ip), vehicle: Klucel (hydroxypropylcellulose) (HPC)
[15] = dose: 100.0 mg/kg/injection, schedule: Q04DX002 (ip), vehicle: Klucel (hydroxypropylcellulose) (HPC)

Measured: T/C

O=C1O/C(=C\c2ccccc2)c2ccccc21
inactive: [1] 101 % of control | [2] 94 % of control | [3] 94 % of control | dose: 200.0 mg/kg/injection, schedule: Q01DX009 (ip), vehicle: saline with Tween-80 97 % of control | [4] 99 % of control | dose: 400.0 mg/kg/injection, schedule: Q01DX009 (ip), vehicle: saline with Tween-80 94 % of control

CCC(C)(C)c1ccc(O)cc1
inactive: dose: 50.0 mg/kg/injection, schedule: Q01DX009 (ip), vehicle: saline with Tween-80 102 % of control | [2] 100 % of control

COC(=O)c1cc(=O)[nH]c2c1c(=O)n(C)c(=O)n2C
inactive: [5] 95 % of control | [6] 97 % of control | [7] 90 % of control | [8] 97 % of control | [9] 94 % of control

N#C/C(=C/c1cc([N+](=O)[O-])c(O)c([N+](=O)[O-])c1)C(N)=O
inactive: dose: 75.0 mg/kg/injection, schedule: Q01DX001 (ip), vehicle: saline 96 % of control | dose: 150.0 mg/kg/injection, schedule: Q01DX001 (ip), vehicle: saline 98 % of control | dose: 300.0 mg/kg/injection, schedule: Q01DX001 (ip), vehicle: saline 95 % of control

Cc1ccc(Nc2nc(N)nc(N)c2N)cc1
inactive: dose: 6.0 mg/kg/injection, schedule: Q01DX Z (ip), vehicle: saline 95 % of control | dose: 12.0 mg/kg/injection, schedule: Q01DX Z (ip), vehicle: saline 97 % of control

BrCC1OCCCO1
inactive: dose: 25.0 mg/kg/injection, schedule: Q01DX009 (ip), vehicle: saline with Tween-80 96 % of control | dose: 25.0 mg/kg/injection, schedule: Q04DX002 (ip), vehicle: saline 100 % of control | dose: 50.0 mg/kg/injection, schedule: Q04DX002 (ip), vehicle: saline 118 % of control | [2] 114 % of control | dose: 100.0 mg/kg/injection, schedule: Q04DX002 (ip), vehicle: saline with Tween-80 117 % of control | dose: 100.0 mg/kg/injection, schedule: Q04DX002 (ip), vehicle: saline 100 % of control

O=C1c2cc(Br)ccc2-c2c(F)cc(Br)cc21
inactive: dose: 50.0 mg/kg/injection, schedule: Q01DX001 (ip), vehicle: carboxymethylcellulose (CMC) 105 % of control | dose: 100.0 mg/kg/injection, schedule: Q01DX001 (ip), vehicle: carboxymethylcellulose (CMC) 100 % of control | dose: 200.0 mg/kg/injection, schedule: Q01DX001 (ip), vehicle: carboxymethylcellulose (CMC) 100 % of control | dose: 400.0 mg/kg/injection, schedule: Q01DX001 (ip), vehicle: carboxymethylcellulose (CMC) 94 % of control

CC(C)CC(=O)/C(CC(C)C)=N/O
inactive: dose: 50.0 mg/kg/injection, schedule: Q01DX001 (ip), vehicle: saline 96 % of control | [1] 104 % of control | [3] 96 % of control | [4] 96 % of control

CCCc1nnnn1C12CC3CC(CC(C3)C1)C2
inactive: [1] 102 % of control | [3] 100 % of control | [4] 93 % of control

Cc1ccc(CN(CCO)Cc2ccccc2)cc1
inactive: dose: 3.12 mg/kg/injection, schedule: Q01DX009 (ip), vehicle: water 86 % of control | dose: 6.25 mg/kg/injection, schedule: Q01DX009 (ip), vehicle: water 89 % of control | dose: 12.5 mg/kg/injection, schedule: Q01DX009 (ip), vehicle: water 93 % of control and 100 % of control | dose: 50.0 mg/kg/injection, schedule: Q01DX009 (ip), vehicle: water 93 % of control

NCCc1ccc(N)cc1
inactive: [1] 106 % of control and 92 % of control | [10] 95 % of control | [3] 106 % of control and 89 % of control | [11] 98 % of control | [4] 97 % of control and 92 % of control | [12] 101 % of control

O=C1OC(=O)C2=C1C1C3C=CCC3C2N2C=CC=CC12 (configuration not stated)
inactive: [13] 96 % of control | [14] 103 % of control | [6] 103 % of control

O=c1oc2ccccc2c(O)c1Oc1ccccc1
inactive: [10] 98 % of control | [11] 91 % of control | [12] 87 % of control

Cc1ccc(S(=O)(=O)N(C)c2ccc(C(=O)O)c3ccccc23)cc1
inactive: dose: 100.0 mg/kg/injection, schedule: Q04DX003 (ip), vehicle: saline with Tween-80 105 % of control | dose: 200.0 mg/kg/injection, schedule: Q04DX003 (ip), vehicle: saline with Tween-80 97 % of control | dose: 400.0 mg/kg/injection, schedule: Q04DX003 (ip), vehicle: saline with Tween-80 100 % of control

CC(=O)OC1CCC2(C)C(=CCC3C2CCC2(C)C3CC3C(c4ccccc4)=NN(c4ccccc4)C32C(=O)c2ccccc2)C1 (configuration not stated)
inactive: dose: 25.0 mg/kg/injection, schedule: Q04DX002 (ip), vehicle: Klucel (hydroxypropylcellulose) (HPC) 104 % of control | dose: 50.0 mg/kg/injection, schedule: Q04DX002 (ip), vehicle: Klucel (hydroxypropylcellulose) (HPC) 93 % of control | [15] 111 % of control

COc1cc(/C=N/NC(=O)Cc2cccc3ccccc23)ccc1O
inactive: [14] 109 % of control | [15] 107 % of control | [6] 93 % of control | dose: 200.0 mg/kg/injection, schedule: Q04DX002 (ip), vehicle: Klucel (hydroxypropylcellulose) (HPC) 104 % of control | [8] 98 % of control | dose: 400.0 mg/kg/injection, schedule: Q04DX002 (ip), vehicle: Klucel (hydroxypropylcellulose) (HPC) 96 % of control

CC(C)C1CC=CCC12C(=O)NC(=O)NC2=O (configuration not stated)
inactive: dose: 75.0 mg/kg/injection, schedule: Q01DX001 (ip), vehicle: other 104 % of control | dose: 150.0 mg/kg/injection, schedule: Q01DX001 (ip), vehicle: other 97 % of control | dose: 300.0 mg/kg/injection, schedule: Q01DX001 (ip), vehicle: other 93 % of control

CCCCCCCCCCCCN(CCCCCCCCCCCC)S(=O)(=O)c1ccc(Cl)c([N+](=O)[O-])c1
inactive: [5] 94 % of control | [7] 94 % of control | [9] 104 % of control

O=C(Nc1cccc(C2=NCCN2)c1)c1cc(C(=O)Nc2cccc(C3=NCCN3)c2)cc(C(=O)Nc2cccc(C3=NCCN3)c2)c1
inactive: dose: 1.9 mg/kg/injection, schedule: Q01DX Z (ip), vehicle: carboxymethylcellulose (CMC) 97 % of control | dose: 2.8 mg/kg/injection, schedule: Q01DX Z (ip), vehicle: carboxymethylcellulose (CMC) 101 % of control | dose: 4.3 mg/kg/injection, schedule: Q01DX Z (ip), vehicle: carboxymethylcellulose (CMC) 97 % of control | dose: 6.5 mg/kg/injection, schedule: Q01DX Z (ip), vehicle: carboxymethylcellulose (CMC) 97 % of control and 103 % of control | dose: 9.7 mg/kg/injection, schedule: Q01DX Z (ip), vehicle: carboxymethylcellulose (CMC) 100 % of control | dose: 14.6 mg/kg/injection, schedule: Q01DX Z (ip), vehicle: carboxymethylcellulose (CMC) 96 % of control | dose: 22.0 mg/kg/injection, schedule: Q01DX Z (ip), vehicle: carboxymethylcellulose (CMC) 97 % of control | dose: 22.0 mg/kg/injection, schedule: Q01DX Z (ip), vehicle: saline 98 % of control | dose: 33.0 mg/kg/injection, schedule: Q01DX Z (ip), vehicle: saline 100 % of control

Clc1c(CBr)c(Cl)c(CBr)c(Cl)c1CBr
inactive: dose: 25.0 mg/kg/injection, schedule: Q01DX009 (ip), vehicle: Klucel (hydroxypropylcellulose) (HPC) 90 % of control | [13] 87 % of control | [5] 88 % of control

CC(=O)Nc1cccnc1
inactive: dose: 50.0 mg/kg/injection, schedule: Q01DX009 (ip), vehicle: saline 101 % of control | dose: 50.0 mg/kg/injection, schedule: Q04DX003 (ip), vehicle: saline 100 % of control | dose: 100.0 mg/kg/injection, schedule: Q01DX009 (ip), vehicle: saline 101 % of control | [10] 94 % of control | dose: 200.0 mg/kg/injection, schedule: Q01DX009 (ip), vehicle: saline 98 % of control | [11] 97 % of control

CCOC(=O)C(C)(C)Oc1ccc(OC(C)(C)C(=O)OCC)cc1
inactive: [14] 93 % of control | [6] 100 % of control | [8] 102 % of control

NC(=O)N1Cc2ccccc2CCc2ccccc2C1
inactive: [5] 98 % of control | [9] 91 % of control
